Experimental findings from article PMC12214830, “The human RIF1-Long isoform interacts with BRCA1 to promote recombinational fork repair under DNA replication stress” (Nature Communications, 2025) are described below.

For one test, the system named is HCT116 cells. As to the kind of experiment: colony formation (clonogenic survival) assay, HCT116 cells. It counts as cell-based, human. As to the method:
For HCT116-derived cells, cells were plated in 6-well plates at 250 cells/well, in triplicate for each drug concentration. Cells were incubated with drugs for 24 h, after which drug-containing medium was replaced with drug-free medium. Seven days later colony counting was performed using a Nikon Eclipse TS100 microscope. For the IR sensitivity test, cells were plated following the same procedure, then irradiated at desired doses and incubated for 7 days before colony counting. Clusters with more than 20 cells were counted as colonies. Mean and standard error of each triplicate was calculated.

In test [1] the test system is RIF1-BRCA1 proximity in RPE-1 cells. The test can be described thus: RIF1-BRCA1 proximity ligation assay, RPE-1 cells. It counts as cell-based, human. As to the method:
(§1) Proximity ligation assays were performed using the Duolink In Situ PLA Fluorescence Protocol (Sigma-Aldrich, DUO92101) following the manufacturer’s instruction. Cells were grown on glass coverslips and treated as indicated for specific experiments. Cells were then permeabilized with 0.5% TritonX-100 in PBS for 10 min on ice, and fixed with 3% formaldehyde, 2% sucrose in PBS for 10 min at room temperature (RT). After fixation, coverslips were blocked in 3% BSA in PBS for 1 h at RT and incubated with primary antibodies (anti-RIF1, Bethel laboratories A300-568A, 1:1000 dilution; anti-BRCA1, Santa Cruz Biotechnologies, sc-6954, 1:200 dilution), for 1 h at RT in a humidity chamber. Primary antibodies were then washed off with PLA washing buffer A supplied in the Duolink In Situ PLA kit. Coverslips were next incubated sequentially with PLA Probes (1 h at 37 °C), ligation solution (30 min at 37 °C) and amplification solution (100 min at 37 °C), with washes by washing buffer A in between each step. At the end of incubation, coverslips were washed with washing buffer B supplied in the Duolink In Situ PLA kit. Coverslips were then mounted on glass slides with PLA Mounting medium with DAPI. Images were captured by fluorescence microscopy (Zeiss Axio Imager). PLA foci number in each nucleus were analysed by CellProfiler Software[74] with a custom-made pipeline.
For EdU labelling combined with proximity ligation assay, cells were labelled with 10 µM EdU for 15 min, washed free of EdU and next incubated with medium containing 4 mM HU medium for 4 h. Cells were then permeabilized, fixed and subjected to RIF1-BRCA1 PLA procedures. After all PLA steps, EdU detection was performed following manufacturer’s instructions in the Click-iT EdU Imaging Kit (Invitrogen, C10640).
(§2) For proximity ligation assays and immunofluorescence signal intensity measurements, when comparing between two samples, statistical significance of differences was calculated by Mann-Whitney test for non-parametric distributions using GraphPad Prism software (v.9). When comparing among three or more samples, p values were calculated by Kruskal-Wallis test for non-parametric distributions with Dunn’s multiple comparisons using GraphPad Prism software (v.9). For RIF1 foci formation analysis (Fig. 6B), p values were calculated by two-tailed Student’s t test. For nuclear BRCA1 intensity fold change analyses (Fig. 6C, D), p values were calculated by two-tailed one-sample t test using GraphPad Prism software (v.9). For RAD51 foci formation analyses (Fig. 7B, E and Supplementary Fig. 7B), p values were calculated by chi-square test. For HR Reporter assay analysis (Fig. 7G and Supplementary Fig. 7L), p values were calculated by two-tailed paired Student’s t test. For micronuclei frequency analysis (Fig. 7H), p values were calculated by one-tailed paired Student’s t test. All Student’s t tests were performed with Excel T.TEST function. Chi-square tests were performed with the online Chi-square test calculator at https://www.socscistatistics.com/tests/chisquare2/default2.aspx. Sample number n for all box-and-whisker plots and dot plots are listed in Supplementary Data 1.

A further test concerns micronuclei. As to the kind of experiment: micronuclei frequency, HeLa cells. In kind it is cell-based, human. As to conditions: Fig.7H. On the procedure:
as §2

Test [2] has as its system RIF1-BRCA1 proximity in HeLa cells. As to the kind of experiment: RIF1-BRCA1 proximity ligation assay, HeLa cells. As to conditions: HeLa +RIF1-L. It counts as cell-based, human. As to the method:
as §1, §2

The subject of another test is RIF1-L-pS2265 antibody. As to the kind of experiment: ELISA, RIF1-L pS2265 antibody binding to exon 31 peptides. More on the design: key: absorbance at 450 nm, blank-subtracted. On the procedure: Two biotinylated peptides corresponding to exon 31 of human RIF1-L without phosphorylation (Biotin-(long chain)-[…]) and with phosphorylation at S2265 (Biotin-(long chain)-[…]-pS-[…]) were synthesised by Eurogentec Ltd (Southampton, Hampshire, UK). Two peptides were mixed in a variable ratio of 0–1% phosphorylated peptide/total peptide. The concentration of total peptide was kept constant at 250 nM in the ELISA wash buffer (1x TBS with 0.1% BSA and 0.05% Tween-20). The peptides were incubated within streptavidin-coated 96-well plates (Pierce Streptavidin Coated High Capacity Plates, Thermo Scientific, 15500) for 2 h at room temperature. After washing with ELISA wash buffer, the RIF1-L pS2265 phospho-antibody (1:2500 dilution) was added and incubated for 2 h at room temperature, followed by washing and incubation with HRP-conjugated secondary antibody (anti-rabbit; Bio-Rad #1706515, 1/10,000 dilution) for 1 h at room temperature. After washing, TMB substrate solution (1-Step Slow TMB-Elisa Substrate Solution, ThermoFisher, 34024) was added to develop the blue colour. 1 N HCl was then added to stop the reaction. Absorbance at 450 nm was measured. The average readings of the blank wells were subtracted. Mean and standard deviations of technical triplicates are shown.

Setting [3] is: Fig S4J, DNA-PKi (NU-7441) 1µM + HU 4mM 24hr.
[4] abbreviates: HeLa RIF1 KO + GFP-RIF1 derivative cells, HU, experiment 07Jun2024.
Where [5] appears, read: HeLa RIF1 KO + GFP-RIF1 derivative cells, unt, experiment 07Jun2024.
The mark [6] stands for this setting: Fig S4I, ATMi (KU-60019) 2µM + HU 4mM 24hr.

In the case of `CC[C@@]1(O)C(=O)OCc2c1cc1n(c2=O)Cc2cc3ccccc3nc2-1` [CPT, camptothecin], the “colony survival, RIF1-L cells” value in the test on HCT116 cells (HCT116 expressing only RIF1-L, versus RIF1-WT) is given as “RIF1-L conferred resistance comparable to RIF1-WT”. In the test on HCT116 cells (HCT116 expressing only RIF1-S, versus RIF1-KO), the “colony survival, RIF1-S cells” value was “exhibited hypersensitivity to these drugs similar to RIF1-KO cells”. For the same compound, the “RIF1-BRCA1 PLA foci” value in test [1] (CPT 100 nM 24 h) is “also induced PLA foci”. Further, in test [1] (Fig 3C, CPT 100 nM 24 h), the “RIF1-BRCA1 PLA foci per nucleus, mean” value worked out at 4.982 and the “RIF1-BRCA1 PLA foci per nucleus, median” value was 4.
Take `O=c1cc(N2CCOCC2)oc2c(-c3cccc4c3sc3ccccc34)cccc12` [NU-7441]: the “RIF1-BRCA1 PLA” value in test [1] (DNA-PKi (NU-7441) 1 µM 24 h + HU 4 mM 24 h) is “no apparent effect”. In addition, in test [1] (setting [3]), the “RIF1-BRCA1 PLA foci per nucleus, mean” value came to 7.597 and the “RIF1-BRCA1 PLA foci per nucleus, median” value is 0, 5, 5.
RIF1-S: the “Micronuclei per 100” value in the test on micronuclei (HU, experiment 14Apr2024) is listed as 12.4358; in the test on micronuclei (setting [4]), 12.93; in the test with micronuclei (setting [5]), 6.41; in the test with micronuclei (unt, experiment 14Apr2024), 6.217.
Turning to Phleomycin, the “colony growth after treatment, RIF1-L and RIF1-S cells” value in the test on HCT116 cells (HCT116 expressing only RIF1-L or only RIF1-S) is “able to support colony growth”.
For the compound RIF1-L -APKF, the “Micronuclei per 100” value came to 14.2857 in the test on micronuclei (HU, experiment 14Apr2024); 12.35 with micronuclei (setting [4]); 6.03 in the test on micronuclei (setting [5]); 4.214 with micronuclei (unt, experiment 14Apr2024).
As for `C[C@@H]1CN(CC(=O)Nc2ccc3c(c2)Cc2cccc(-c4cc(=O)cc(N5CCOCC5)o4)c2S3)C[C@H](C)O1` [KU-60019], in test [2] (setting [6]), the “RIF1-BRCA1 PLA foci per nucleus, mean” value is listed as 18.33 and the “RIF1-BRCA1 PLA foci per nucleus, median” value is on record as 2, 17, 17. The “RIF1-BRCA1 PLA” value in test [2] (ATMi (KU-60019) 2 µM 24 h + HU 4 mM 24 h) is given as “no apparent effect”.
On to “Biotin-(long chain)-HNTTSAKGFLSPGSR-pS-PKFKSSKKCL [RIF1-L-phosphoS2265 peptide, biotinylated exon 31 peptide of human RIF1-L phosphorylated at S2265]”, for which the “A450, Average” value is reported as 0.009 in the test with RIF1-L-pS2265 antibody (0.00% phosphorylated/total peptide (250 nM total), mean of technical triplicates); 0.104 in the test on RIF1-L-pS2265 antibody (0.13% phosphorylated/total peptide (250 nM total), mean of technical triplicates); 0.166 in the test on RIF1-L-pS2265 antibody (0.25% phosphorylated/total peptide (250 nM total), mean of technical triplicates); 0.239 in the test on RIF1-L-pS2265 antibody (0.50% phosphorylated/total peptide (250 nM total), mean of technical triplicates); 0.346 in the test on RIF1-L-pS2265 antibody (1.00% phosphorylated/total peptide (250 nM total), mean of technical triplicates); 0.104 in the test with RIF1-L-pS2265 antibody (Standard 0.13%, average of 3, right block). In addition, the “A450, Average” value with RIF1-L-pS2265 antibody (Standard 0.25%, average of 3, right block) came to 0.166; in the test with RIF1-L-pS2265 antibody (Standard 0.50%, average of 3, right block), 0.239; with RIF1-L-pS2265 antibody (Standard 1.00%, average of 3, right block) it was 0.346. The A450 was found to be 0.01 in the test on RIF1-L-pS2265 antibody (0.00% phosphorylated/total peptide (250 nM total), replicate 1); 0.008 with RIF1-L-pS2265 antibody (0.00% phosphorylated/total peptide (250 nM total), replicate 2); 0.01 with RIF1-L-pS2265 antibody (0.00% phosphorylated/total peptide (250 nM total), replicate 3); 0.106 in the test on RIF1-L-pS2265 antibody (0.13% phosphorylated/total peptide (250 nM total), replicate 1); 0.104 in the test with RIF1-L-pS2265 antibody (0.13% phosphorylated/total peptide (250 nM total), replicate 2); 0.103 in the test with RIF1-L-pS2265 antibody (0.13% phosphorylated/total peptide (250 nM total), replicate 3). Also, the A450 came out at 0.16 in the test on RIF1-L-pS2265 antibody (0.25% phosphorylated/total peptide (250 nM total), replicate 1); 0.169 in the test with RIF1-L-pS2265 antibody (0.25% phosphorylated/total peptide (250 nM total), replicate 2); 0.169 in the test with RIF1-L-pS2265 antibody (0.25% phosphorylated/total peptide (250 nM total), replicate 3); 0.247 with RIF1-L-pS2265 antibody (0.50% phosphorylated/total peptide (250 nM total), replicate 1); 0.216 in the test with RIF1-L-pS2265 antibody (0.50% phosphorylated/total peptide (250 nM total), replicate 2); 0.255 in the test on RIF1-L-pS2265 antibody (0.50% phosphorylated/total peptide (250 nM total), replicate 3). The A450 is given as 0.348 in the test with RIF1-L-pS2265 antibody (1.00% phosphorylated/total peptide (250 nM total), replicate 1); 0.343 in the test on RIF1-L-pS2265 antibody (1.00% phosphorylated/total peptide (250 nM total), replicate 2); 0.347 with RIF1-L-pS2265 antibody (1.00% phosphorylated/total peptide (250 nM total), replicate 3); 0.155 with RIF1-L-pS2265 antibody (Standard 0.13%, replicate 1, left block); 0.106 in the test on RIF1-L-pS2265 antibody (Standard 0.13%, replicate 1, right block (0.049 below left block)); 0.153 with RIF1-L-pS2265 antibody (Standard 0.13%, replicate 2, left block). Also, the A450 in the test with RIF1-L-pS2265 antibody (Standard 0.13%, replicate 2, right block (0.049 below left block)) came out at 0.104; in the test with RIF1-L-pS2265 antibody (Standard 0.13%, replicate 3, left block) it was 0.152; in the test with RIF1-L-pS2265 antibody (Standard 0.13%, replicate 3, right block (0.049 below left block)) it was 0.103; with RIF1-L-pS2265 antibody (Standard 0.25%, replicate 1, left block), 0.209; in the test with RIF1-L-pS2265 antibody (Standard 0.25%, replicate 1, right block (0.049 below left block)), 0.16; in the test with RIF1-L-pS2265 antibody (Standard 0.25%, replicate 2, left block), 0.218. Also, the A450 with RIF1-L-pS2265 antibody (Standard 0.25%, replicate 2, right block (0.049 below left block)) is recorded as 0.169; with RIF1-L-pS2265 antibody (Standard 0.25%, replicate 3, left block), 0.218; in the test on RIF1-L-pS2265 antibody (Standard 0.25%, replicate 3, right block (0.049 below left block)) it was 0.169; in the test on RIF1-L-pS2265 antibody (Standard 0.50%, replicate 1, left block), 0.296; with RIF1-L-pS2265 antibody (Standard 0.50%, replicate 1, right block (0.049 below left block)) it was 0.247; in the test with RIF1-L-pS2265 antibody (Standard 0.50%, replicate 2, left block), 0.265. The A450 stood at 0.216 in the test with RIF1-L-pS2265 antibody (Standard 0.50%, replicate 2, right block (0.049 below left block)); 0.304 with RIF1-L-pS2265 antibody (Standard 0.50%, replicate 3, left block); 0.255 with RIF1-L-pS2265 antibody (Standard 0.50%, replicate 3, right block (0.049 below left block)); 0.397 with RIF1-L-pS2265 antibody (Standard 1.00%, replicate 1, left block); 0.348 in the test on RIF1-L-pS2265 antibody (Standard 1.00%, replicate 1, right block (0.049 below left block)); 0.392 in the test with RIF1-L-pS2265 antibody (Standard 1.00%, replicate 2, left block). For the same compound, the A450 is listed as 0.343 in the test on RIF1-L-pS2265 antibody (Standard 1.00%, replicate 2, right block (0.049 below left block)); 0.396 in the test with RIF1-L-pS2265 antibody (Standard 1.00%, replicate 3, left block); 0.347 with RIF1-L-pS2265 antibody (Standard 1.00%, replicate 3, right block (0.049 below left block)).
